Consider 15 compounds from PubChem BioAssay (NCI).

Values joined by “and” are separate entries in the source; they are usually repeats but may differ in a detail not shown here. Identical values can stand only once.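 Dose response: 5 concentrations. Exposure: 48 h. Format: 96-well plates. Endpoint: linear interpolation; highest concentration if not reached. GI50 is the concentration that inhibits growth by half. TGI denotes the concentration required for complete inhibition of growth.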

Holding throughout (assay): inhibition of tumour cell growth, NCI panel, 48 h
The subject of assay [1] is HOP-62 NSCLC.
For assay [2], the system named is MOLT-4 leukemia.
Assay [3] relates to NCI-H23 lung.
In assay [4] the test system is OVCAR-3 ovarian.
For assay [5], the system named is RPMI-8226 leukemia.
For assay [6], the system named is SF-268 CNS.
Assay [7] has as its system SK-MEL-2 melanoma.
For assay [8], the system named is UACC-62 melanoma.
Assay [9] concerns HCC-2998 colon.
The subject of assay [10] is MDA-MB-435.

Turning to `Nc1nc(-c2ccco2)cc(-c2ccc(CO)o2)n1`, the TGI in [1], in assay [2], in assay [3], in [4], in assay [5] and in assay [6] was more than 100 µM throughout. The TGI in [7] and in [8] was more than 100 µM in each case.
Consider `COC1=C(C)C(=O)c2c(cc3c(c2O)C(C)(CCC=C(C)C)C(C)O3)C1=O` (stereo not given), for which the TGI in assay [9] is more than 78.8 µM; in assay [1] it was 34.1 µM; in assay [2], more than 100 µM; in assay [3], 68.5 µM; in assay [4], more than 100 µM; in [5] it was more than 100 µM. Further, the TGI was more than 100 µM in assay [6], more than 60.8 µM in [7] and 97 µM in assay [8].
For the compound `COc1cc(C2c3cc4c(cc3[C@@H](NCCN3CCOCC3)C3COC(=O)[C@H]23)OCO4)cc(OC)c1O` (stereo not given in full), the TGI in [9] is 11.5 µM and 7.24 µM; in [1], 2.71 µM and 3.8 µM; in assay [2], 4.48 µM and 4.87 µM; in [3], 4.89 µM and 7.21 µM; in [4] it was 21.5 µM and 14.3 µM; in assay [5], 6.58 µM and 9.59 µM. The TGI in assay [6] is 10.2 µM; in assay [7], 14.5 µM and 11.3 µM; in assay [8], 4.99 µM and 6.06 µM. Moreover, the GI50 in assay [2] is 0.137 µM and 0.402 µM; in assay [3], 1.17 µM and 2.45 µM; in assay [5], 0.855 µM and 1.81 µM.
With `O=C1c2ccccc2N2Oc3ccccc3C12c1ccccc1` (stereo not given), the TGI in [9], in assay [1], in [2], in assay [3], in assay [5] and in [6] was more than 100 µM each time. This compound registered a TGI in assay [8] of more than 100 µM.
Take `CCCCCCCCC/C=C1\CCC(CN(C)C)C1=O` (stereo not given): the TGI in assay [9] amounted to 10.5 µM; in assay [1], 4.32 µM; in [2], 8.49 µM; in assay [3] it was 5.61 µM; in [6] it was 3.71 µM; in assay [7], 6.42 µM. In assay [8], this compound returned a TGI of 5.73 µM.
With `CCCCCCCCCCCCCCCCCCOCC(O)COP(=O)(O)OCC1OC(n2ccc(N)nc2=O)C(O)C1O` (stereo not given), the TGI was more than 100 µM in assay [9]; 48.9 µM in assay [1]; more than 100 µM in assay [10]; 20 µM in assay [2]; more than 100 µM in [3]; more than 100 µM in assay [4]. Besides, the TGI in assay [5] turned out to be 52.9 µM; in assay [6] it was 49.8 µM; in assay [8] it was 70.2 µM.
Regarding `CNC1(C(=O)O)CC1`, the TGI in assay [9], in assay [1], in assay [10], in assay [2], in assay [3] and in [4] was more than 100 µM throughout. For the same compound, the TGI in [5], in assay [6] and in assay [8] was more than 100 µM each time.
In the case of `COc1ccc(-c2oc3c(OC)c(OC)cc(O)c3c(=O)c2OC)cc1`, the TGI in assay [9], in assay [1], in [10], in assay [2], in assay [3] and in assay [4] was more than 100 µM each time. The TGI in [6], in [7] and in assay [8] was more than 100 µM throughout.
In the case of `CC(=O)CC1=C(OC(C)C)C2(OCCO2)C1O` (stereo not given), the TGI in [1], in assay [10], in assay [2], in assay [3], in [4] and in assay [6] was more than 100 µM throughout. The TGI in [7] and in [8] was more than 100 µM throughout.
`COc1ccccc1C1c2cc3c(cc2OC(N2CCOCC2)C1C)OCO3` (stereo not given): the TGI in assay [1] is 35.3 µM; in assay [10], 24.9 µM; in assay [2], 48.7 µM; in assay [3], 58.7 µM; in assay [4], 29.5 µM; in assay [5], 45.7 µM. The TGI in assay [6] came to 40.9 µM; in assay [7], 37.3 µM; in assay [8], 35.5 µM.
`N#CNC(=NCCc1c[nH]c2ccccc12)Oc1ccccc1`: the TGI in [9], in assay [1], in [2], in [3], in assay [4] and in assay [5] was more than 100 µM each time. Moreover, the TGI in [6] and in assay [8] was more than 100 µM each time.
`N#Cc1c(-c2ccccc2)c(CN2CCCCC2)c(=O)n2c1[nH]c1ccccc12`: the TGI in assay [9] is more than 100 µM; in [1], 91.5 µM; in assay [10], more than 100 µM; in [2], 45.4 µM; in [3], more than 100 µM; in assay [4] it was 58.3 µM. Also, the TGI in assay [6] and in assay [7] was more than 100 µM each time.
Consider `Cn1cc(-c2csc(-c3cn(C)c4ccccc34)n2)c2ccccc21`, for which the TGI in assay [1] is 45.7 µM; in assay [10] it was more than 100 µM; in [2], 42 µM; in assay [3] it was more than 100 µM; in assay [4], 64 µM; in [5] it was 85 µM. The TGI in [6], in assay [7] and in assay [8] was more than 100 µM each time.
Turning to `CNc1nc(C(N)=O)c(N)s1`, the TGI in assay [1], in assay [10], in assay [2], in assay [3], in assay [4] and in assay [5] was more than 100 µM each time. The TGI in [6], in [7] and in assay [8] was more than 100 µM in each case.
Turning to `c1ccc(CSC2(SCc3ccccc3)CCCCC2)cc1`, the TGI in assay [9], in assay [1], in assay [2], in assay [3], in assay [4] and in [5] was more than 10 µM in each case. Further, the TGI in assay [6], in assay [7] and in assay [8] was more than 10 µM in each case.
